Assay results taken from US10150757B2, “Quinazolinone derivatives as PARP inhibitors” (Janssen Pharmaceutica NV, priority 2004, dated 2018).

Key:
[1] = test system: ischemia and reperfusion of the heart; conditions: rabbits, cited from earlier work
colitis = conditions: rats, colitis by intraluminal trinitrobenzene sulfonic acid in 50% ethanol; cited from earlier work
TANK-2 enzyme = target: T1, TANK-2 enzyme (Homo sapiens, UniProt Q9H2K2); experiment: In vitro scintillation proximity assay (SPA) for TANK-2 inhibitory activity; assay type: biochemical; conditions: auto-poly(ADP-ribosyl)ation; 96-well plate results if available, otherwise 384-well; read-out: in vitro SPA assay TANK-2 pIC50 (converted)
T1 construct: made in house
T1 sequence (Q9H2K2 1-1166): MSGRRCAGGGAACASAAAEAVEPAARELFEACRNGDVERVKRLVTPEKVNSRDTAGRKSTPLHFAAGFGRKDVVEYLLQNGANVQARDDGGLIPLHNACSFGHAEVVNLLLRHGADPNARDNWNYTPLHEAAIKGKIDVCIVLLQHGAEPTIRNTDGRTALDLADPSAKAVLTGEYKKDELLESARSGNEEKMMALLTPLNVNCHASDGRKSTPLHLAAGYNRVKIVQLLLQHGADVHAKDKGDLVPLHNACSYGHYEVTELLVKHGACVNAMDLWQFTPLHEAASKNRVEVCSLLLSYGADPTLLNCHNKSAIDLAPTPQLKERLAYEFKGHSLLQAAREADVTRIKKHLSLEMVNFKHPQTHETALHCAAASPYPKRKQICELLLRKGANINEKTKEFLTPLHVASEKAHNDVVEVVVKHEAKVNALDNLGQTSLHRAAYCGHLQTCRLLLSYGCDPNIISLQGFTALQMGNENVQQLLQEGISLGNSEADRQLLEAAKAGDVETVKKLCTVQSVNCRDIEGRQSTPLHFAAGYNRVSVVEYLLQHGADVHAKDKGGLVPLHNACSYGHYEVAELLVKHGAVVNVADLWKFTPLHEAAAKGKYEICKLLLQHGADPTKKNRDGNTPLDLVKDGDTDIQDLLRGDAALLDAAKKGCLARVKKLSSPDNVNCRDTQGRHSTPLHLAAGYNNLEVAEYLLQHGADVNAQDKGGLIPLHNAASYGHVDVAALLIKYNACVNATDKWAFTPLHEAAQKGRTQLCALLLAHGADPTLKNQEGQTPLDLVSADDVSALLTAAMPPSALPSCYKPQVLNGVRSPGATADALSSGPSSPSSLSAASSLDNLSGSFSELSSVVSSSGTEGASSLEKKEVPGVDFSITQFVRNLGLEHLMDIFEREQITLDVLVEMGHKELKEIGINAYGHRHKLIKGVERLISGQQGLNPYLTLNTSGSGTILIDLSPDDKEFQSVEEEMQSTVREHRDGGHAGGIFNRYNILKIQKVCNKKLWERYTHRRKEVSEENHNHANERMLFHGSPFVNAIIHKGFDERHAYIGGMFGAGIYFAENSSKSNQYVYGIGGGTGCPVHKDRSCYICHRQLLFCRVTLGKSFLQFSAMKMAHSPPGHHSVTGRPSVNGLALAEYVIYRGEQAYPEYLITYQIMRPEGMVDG
Protocol: In Vitro Scintillation Proximity Assay (SPA) for TANK-2 Inhibitory Activity
Compounds of the present invention were tested in an in vitro assay based on SPA technology with Ni Flash plates (96 or 384 well).
In principle, the assay relies upon SPA technology for the detection of auto-poly(ADP-ribosyl)ation of TANK-2 protein using [^3H]-nicotinamide adenine dinucleotide ([^3H]-NAD^+) as ADP-ribosyl donor.
A stock solution of [^3H]-NAD^+/NAD was made by adding 64.6 μl of [^3H]-NAD^+ (0.1 mCi/ml, supplier: Perkin Elmer) and 46.7 μl NAD-stock (10.7 mM, stored at −20° C., supplier Roche) to 1888.7 μl assay buffer (60 mM Tris/HCl, pH 7.4; 0.9 mM DTT; 6 mM MgCl2). The TANK-2 enzyme was produced as described in EP1238063. 60 μl of assay buffer, together with 1 μl of compound in DMSO, 20 μl of [^3H]-NAD^+/NAD and 20 μl of TANK-2 enzyme (final concentration 6 μg/ml) was added per well into a 96-well Ni-coated flash plate (Perkin Elmer). After incubation of the mixture for 120 min. at room temperature, the reaction was terminated by adding 60 μl of stop solution (42.6 mg NAD in 6 ml H2O). The plates were covered with a plate sealer and placed in a TopCountNXT™ (Packard) for scintillation counting. Values were expressed as counts per minute (cpm). For each experiment, controls (containing TANK-2 enzyme and DMSO without compound), a blank incubation (containing DMSO but no TANK-2 enzyme or compound) and samples (containing TANK-2 enzyme and compound dissolved in DMSO) were run in parallel. All compounds tested were dissolved and eventually further diluted in DMSO. In first instance, compounds were tested at a concentration of 10^−5M. […] In each test, the blank value was subtracted from both the control and the sample values. The control sample represented maximal TANK-2 enzyme activity. For each sample, the amount of cpm was expressed as a percentage of the mean cpm value of the controls. When appropriate, IC50-values (concentration of the drug, needed to reduce the TANK-2 enzyme activity to 50% of the control) were computed using linear interpolation between the experimental points just above and below the 50% level. Herein the effects of test compounds are expressed as pIC50 (the negative log value of the IC50-value). As reference compounds, 3-aminobenzamide and 4-amino-1,8-naphthalimide were included to validate the SPA assay. Herein the assay was described using 96-well plates. In the assay using 384-well plates the same final concentrations were used and volumes were adapted.

PARP-1 enzyme = PARP-1 enzyme (Homo sapiens, UniProt P09874); experiment: In vitro scintillation proximity assay (SPA) for PARP-1 inhibitory activity; assay type: biochemical; conditions: [3H]-NAD+, biotinylated histones, nicked DNA; read-out: in vitro SPA assay PARP-1 pIC50 (converted)
Sequence of PARP-1 enzyme (P09874 whole entry): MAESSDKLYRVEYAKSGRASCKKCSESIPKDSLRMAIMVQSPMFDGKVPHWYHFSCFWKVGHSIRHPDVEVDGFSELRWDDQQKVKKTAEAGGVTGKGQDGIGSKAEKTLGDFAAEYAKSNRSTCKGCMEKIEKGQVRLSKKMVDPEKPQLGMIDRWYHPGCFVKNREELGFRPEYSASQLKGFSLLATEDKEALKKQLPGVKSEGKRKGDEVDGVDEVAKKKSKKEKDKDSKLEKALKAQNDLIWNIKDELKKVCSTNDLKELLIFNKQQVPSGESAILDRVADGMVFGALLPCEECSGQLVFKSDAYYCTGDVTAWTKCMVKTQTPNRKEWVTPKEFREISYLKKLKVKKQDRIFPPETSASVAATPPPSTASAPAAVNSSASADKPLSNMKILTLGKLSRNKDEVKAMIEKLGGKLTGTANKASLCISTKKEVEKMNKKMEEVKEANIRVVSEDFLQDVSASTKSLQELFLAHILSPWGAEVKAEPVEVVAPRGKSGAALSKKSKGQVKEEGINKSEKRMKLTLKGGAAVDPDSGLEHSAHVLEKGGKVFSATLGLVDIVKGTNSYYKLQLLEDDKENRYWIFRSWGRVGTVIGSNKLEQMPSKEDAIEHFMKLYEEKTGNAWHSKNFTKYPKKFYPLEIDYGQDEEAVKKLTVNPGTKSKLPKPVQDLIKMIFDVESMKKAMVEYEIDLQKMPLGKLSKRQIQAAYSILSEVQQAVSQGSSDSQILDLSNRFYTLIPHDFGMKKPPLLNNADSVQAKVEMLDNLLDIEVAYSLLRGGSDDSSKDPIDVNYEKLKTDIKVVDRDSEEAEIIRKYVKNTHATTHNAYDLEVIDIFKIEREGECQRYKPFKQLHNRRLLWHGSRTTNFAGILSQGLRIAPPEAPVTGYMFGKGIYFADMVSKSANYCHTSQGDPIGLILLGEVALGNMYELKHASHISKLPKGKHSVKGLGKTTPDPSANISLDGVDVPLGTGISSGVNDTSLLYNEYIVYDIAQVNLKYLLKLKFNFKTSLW
Protocol: In Vitro Scintillation Proximity Assay (SPA) for PARP-1 Inhibitory Activity
Compounds of the present invention were tested in an in vitro assay based on SPA technology (proprietary to Amersham Pharmacia Biotech).
In principle, the assay relies upon the well established SPA technology for the detection of poly(ADP-ribosyl)ation of biotinylated target proteins, i.e histones. This ribosylation is induced using nicked DNA activated PARP-1 enzyme and [^3H]-nicotinamide adenine dinucleotide ([^3H]-NAD^+) as ADP-ribosyl donor.
As inducer of PARP-1 enzyme activity, nicked DNA was prepared. For this, 25 mg of DNA (supplier: Sigma) was dissolved in 25 ml DNAse buffer (10 mM Tris-HCl, pH 7.4; 0.5 mg/ml Bovine Serum Albumine (BSA); 5 mM MgCl2.6H2O and 1 mM KCl) to which 50 μl DNAse solution (1 mg/ml in 0.15M NaCl) was added. After an incubation of 90 min. at 37° C., the reaction was terminated by adding 1.45 g NaCl, followed by a further incubation at 58° C. for 15 min. The reaction mixture was cooled on ice and dialysed at 4° C. for respectively 1.5 and 2 hours against 1.5 l of 0.2M KCl, and twice against 1.5 l of 0.01M KCl for 1.5 and 2 h respectively. The mixture was aliquoted and stored at −20° C. Histones (1 mg/ml, type II-A, supplier: Sigma) were biotinylated using the biotinylation kit of Amersham and stored aliquoted at −20° C. A stock solution of 100 mg/ml SPA poly(vinyl toluene) (PVT) beads (supplier: Amersham) was made in PBS. A stock solution of [^3H]-NAD^+ was made by adding 120 μl of [^3H]-NAD^+ (0.1 mCi/ml, supplier: NEN) to 6 ml incubation buffer (50 mM Tris/HCl, pH 8; 0.2 mM DTT; 4 mM MgCl2). A solution of 4 mM NAD^+ (supplier: Roche) was made in incubation buffer (from a 100 mM stock solution in water stored at −20° C.). The PARP-1 enzyme was produced using art known techniques, i.e. cloning and expression of the protein starting from human liver cDNA. Information concerning the used protein sequence of the PARP-1 enzyme including literature references can be found in the Swiss-Prot database under primary accession number P09874. Biotinylated histones and PVT-SPA beads were mixed and pre-incubated for 30 min. at room temperature. PARP-1 enzyme (concentration was lot dependent) was mixed with the nicked DNA and the mixture was pre-incubated for 30 min. at 4° C. Equal parts of this histones/PVT-SPA beads solution and PARP-1 enzyme/DNA solution were mixed and 75 μl of this mixture together with 1 μl of compound in DMSO and 25 μl of [^3H]-NAD^+ was added per well into a 96-well microtiterplate. The final concentrations in the incubation mixture were 2 μg/ml for the biotinylated histones, 2 mg/ml for the PVT-SPA beads, 2 μg/ml for the nicked DNA and between 5-10 μg/ml for the PARP-1 enzyme. After incubation of the mixture for 15 min. at room temperature, the reaction was terminated by adding 100 μl of 4 mM NAD^+ in incubation buffer (final concentration 2 mM) and plates were mixed.
The beads were allowed to sediment for at least 15 min. and plates transferred to a TopCountNXT™ (Packard) for scintillation counting, values were expressed as counts per minute (cpm). For each experiment, controls (containing PARP-1 enzyme and DMSO without compound), a blank incubation (containing DMSO but no PARP-1 enzyme or compound) and samples (containing PARP-1 enzyme and compound dissolved in DMSO) were run in parallel. All compounds tested were dissolved and eventually further diluted in DMSO. In first instance, compounds were tested at a concentration of 10^−5M. […] In each test, the blank value was subtracted from both the control and the sample values. The control sample represented maximal PARP-1 enzyme activity. For each sample, the amount of cpm was expressed as a percentage of the mean cpm value of the controls. […] Herein the effects of test compounds are expressed as pIC50 (the negative log value of the IC50-value).

CCc1cc2cc(CN3CCN(CCNc4nc5ccccc5c(=O)[nH]4)CC3)ccc2nc1OC (hydrate or solvate) [Compound 3]
melting point: 118 °C

Oc1cccc2c(O)nccc12 [1,5-dihydroxyisoquinoline]
reduced infarct size ([1]; single injection 1 mg/kg): 38-48%

NC(=O)c1cccc(N)c1 [3-amino-benzamide]
reductions in infarct size in the heart ([1]; single injection 10 mg/kg, one minute before occlusion or one minute before reperfusion): 32-42% | inflammatory response, morphology and energetic status of the distal colon (colitis): reduced the inflammatory response and restored the morphology and the energetic status of the distal colon

CC1(C)Cc2cc(Cl)cc(C(=O)NC3CCN(CCCNc4nc(O)c5ccccc5n4)CC3)c2O1 [Compound 11]
IC50 (TANK-2 enzyme): > 10 µM

CC1(C)Cc2cc(Cl)cc(C(=O)NC3CCN(CCNc4nc(O)c5ccccc5n4)CC3)c2O1 [Compound 12]
IC50 (TANK-2 enzyme): > 10 µM

CO[C@H]1CN(CCNc2nc(O)c3ccccc3n2)CC[C@H]1NC(=O)c1cc(Cl)cc2c1OC(C)(C)C2 [Compound 13]
IC50 (TANK-2 enzyme): > 10 µM

CO[C@@H]1CN(CCCNc2nc(O)c3cc(Cl)ccc3n2)CC[C@@H]1NC(=O)c1cc(Cl)c(N)c2c1OC(C)(C)C2 [Compound 16]
IC50 (TANK-2 enzyme): > 10 µM

CO[C@@H]1CN(CCCNc2nc(O)c3ccc(Cl)cc3n2)CC[C@@H]1NC(=O)c1cc(Cl)c(N)c2c1OC(C)(C)C2 [Compound 17]
IC50 (TANK-2 enzyme): > 10 µM

O=c1[nH]c(NCCN2CCN(c3n[nH]c4ccccc34)CC2)nc2ccccc12 [Compound 19]
IC50 (TANK-2 enzyme): > 10 µM

COc1cc2nc(NCCN3CCN(c4n[nH]c5ccccc45)CC3)[nH]c(=O)c2cc1OC [Compound 32]
IC50 (PARP-1 enzyme): 0.0452 µM

Cc1cccc2nc(NCCN3CCC(c4n[nH]c5cc(F)ccc45)CC3)[nH]c(=O)c12 [Compound 34]
IC50 (PARP-1 enzyme): 0.0217 µM

O=c1[nH]c(NCCN2CCN(c3n[nH]c(=O)c4ccccc34)CC2)nc2ccccc12 [Compound 35]
IC50 (PARP-1 enzyme): 0.0107 µM
